Results taken from patent US7122554B2, “Carboline derivatives” (Lilly Icos LLC., priority 2001, dated 2006).

Experiments:
[1] = molecular target: human recombinant PDE5 (Homo sapiens, UniProt O76074); test: Inhibitory effect on cGMP-PDE (PDE5 IC50, one-step assay); assay type: biochemical; conditions: human recombinant PDE5, 0.15 μM 8-[H3]-cGMP, 30 minutes incubation
Description: The compounds of structural formula (I) were tested for an ability to inhibit PDE5. The ability of a compound to inhibit PDE5 activity is related to the IC50 value for the compound, i.e., the concentration of inhibitor required for 50% inhibition of enzyme activity. The IC50 value for compounds of structural formula (I) were determined using recombinant human PDE5.
cGMP-PDE activity of compounds of the present invention was measured using a one-step assay adapted from Wells et al., Biochim. Biophys. Acta, 384, 430 (1975). The reaction medium contained 50 mM Tris-HCl, pH 7.5, 5 mM magnesium acetate, 250 μg/ml 5′-Nucleotidase, 1 mM EGTA, and 0.15 μM 8-[H^3]-cGMP. Unless otherwise indicated, the enzyme used was a human recombinant PDE5 (ICOS Corp., Bothell, Wash.).
Compounds of the invention were dissolved in DMSO finally present at 2% in the assay.

Row | Compound | IC50 [1] [nM] | melting point [°C]
1 | Fc1ccc(CNC(=S)N2CCc3c([nH]c4ccccc34)[C@H]2c2ccc3c(c2)OCO3)cc1 [Example 35, (1R)-benzo[1,3]dioxol-5-yl-1,3,4,9-tetrahydro-β-carboline-2-carbothioic acid 4-fluorobenzylamide] | 122 | 137 to 139
2 | FC(F)(F)c1cc(NC(=S)N2CCc3c([nH]c4ccccc34)[C@H]2c2ccc3c(c2)OCO3)ccc1Cl [Example 30, (1R)-benzo[1,3]dioxol-5-yl-1,3,4,9-tetrahydro-β-carboline-2-carbothioic acid (4-chloro-3-trifuloromethylphenyl)amide] | 83 | 
3 | COC(=O)CCCC(=O)N1CCc2c([nH]c3ccccc23)C1c1ccccc1 (centres unmarked) [Example 20] | 1 | 
4 | S=C(NCc1cccc2ccccc12)N1CCc2c([nH]c3ccccc23)[C@H]1c1ccc2c(c1)OCO2 [Example 39, (1R)-1-benzo[1,3]dioxol-5-yl-1,3,4,9-tetrahydro-β-carboline-2-carbothioic acid (naphthalen-1-yl-methyl)amide] | 119 | 111 to 113
5 | O=C(C=C1CCCCC1)N1CCc2c([nH]c3ccccc23)[C@H]1c1ccc2c(c1)OCO2 [Example 16] | 209 | 116 to 118
6 | O=C(O)CCCC(=O)N1CCc2c([nH]c3ccccc23)C1c1ccc2c(c1)OCO2 (centres unmarked) [Example 22] | 150 | 
7 | COC(=O)N1CCc2c([nH]c3ccccc23)C1c1ccccc1 (centres unmarked) [Example 19] | 1 | 
8 | O=C(NCc1ccccc1)N1CCc2c([nH]c3ccccc23)C1c1ccccc1 (centres unmarked) [Example 4] | 800 | 
9 | S=C(NCc1ccc(Cl)cc1Cl)N1CCc2c([nH]c3ccccc23)[C@H]1c1ccc2c(c1)OCO2 [Example 25, (1R)-benzo[1,3]dioxol-5-yl-1,3,4,9-tetrahydro-β-carboline-2-carbothioic acid 2,4-dichlorobenzylamide] | 126 | 124 to 127
10 | S=C(NCc1ccc2c(c1)OCO2)N1CCc2c([nH]c3ccccc23)[C@H]1c1ccc2c(c1)OCO2 [Example 40, (1R)-1-benzo-[1,3]dioxol-5-yl-1,3,4,9-tetrahydro-β-carboline-2-carbothioic acid (benzo[1,3]dioxol-5-yl-methyl)amide] | 56 | 97 to 100
11 | O=C(O)c1ccc(CNC(=S)N2CCc3c([nH]c4ccccc34)[C@H]2c2ccc3c(c2)OCO3)cc1 [Example 28, (1R)-4-{[(1-benzo[1,3]dioxol-5-yl-1,3,4,9-tetrahydro-β-carboline-2-carbthiolyl)-amino]methyl}benzoic acid] | 36 | 
12 | O=C(Nc1cccc2ccccc12)N1CCc2c([nH]c3ccccc23)C1c1ccccc1 (centres unmarked) [Example 6] | 400 | 
13 | S=C(NCc1ccc(Cl)cc1)N1CCc2c([nH]c3ccccc23)[C@H]1c1ccc2c(c1)OCO2 [Example 32, (1R)-benzo[1,3]dioxol-5-yl-1,3,4,9-tetrahydro-β-carboline-2-carbothioic acid 4-chlorobenzylamide] | 51 | 
14 | COc1ccc(C2c3[nH]c4ccccc4c3CCN2C(=O)CCCC(=O)O)cc1Cl (centres unmarked) [Example 21] | 180 | 
15 | S=C(NCc1cccc(Cl)c1)N1CCc2c([nH]c3ccccc23)[C@H]1c1ccc2c(c1)OCO2 [Example 36, (1R)-benzo[1,3]dioxol-5-yl-1,3,4,9-tetrahydro-β-carboline-2-carbothioic acid 3-chlorobenzylamide] | 494 | 189 to 191
16 | O=C(Nc1ccccc1)N1CCc2c([nH]c3ccccc23)C1c1ccccc1 (centres unmarked) [Example 5] | 400 | 
17 | Fc1cccc(CNC(=S)N2CCc3c([nH]c4ccccc34)[C@H]2c2ccc3c(c2)OCO3)c1 [Example 33, (1R)-benzo[1,3]dioxol-5-yl-1,3,4,9-tetrahydro-β-carboline-2-carbothioic acid 3-fluorobenzylamide] | 75 | 179 to 181
18 | O=C(NC1CCCCC1)N1CCc2c([nH]c3ccccc23)C1c1ccc2c(c1)OCO2 (centres unmarked) [Example 7] | 850 | 
19 | S=C(NCc1ccc(Cl)c(Cl)c1)N1CCc2c([nH]c3ccccc23)[C@H]1c1ccc2c(c1)OCO2 [Example 34, (1R)-benzo[1,3]dioxol-5-yl-1,3,4,9-tetrahydro-β-carboline-2-carbothioic acid 3,4-dichlorobenzylamide] | 512 | 
20 | Cc1ccc(CNC(=S)N2CCc3c([nH]c4ccccc34)[C@H]2c2ccc3c(c2)OCO3)cc1C [Example 37, (1R)-benzo[1,3]dioxol-5-yl-1,3,4,9-tetrahydro-β-carboline-2-carbothioic acid 3,4-dimethylbenzylamide] | 30 | 138 to 142

Next, values leading:

Row | IC50 [1] [nM] | melting point [°C] | Compound
21 | 518 |  | FC(F)(F)c1ccccc1NC(=S)N1CCc2c([nH]c3ccccc23)[C@H]1c1ccc2c(c1)OCO2 [Example 31, (1R)-benzo[1,3]dioxol-5-yl-1,3,4,9-tetrahydro-β-carboline-2-carbothioic acid (2-trifluoromethylphenyl)amide]
22 | 196 | 117 to 121 | C[C@H](NC(=S)N1CCc2c([nH]c3ccccc23)[C@H]1c1ccc2c(c1)OCO2)c1ccccc1 [Example 27]
23 | 675 | 191 to 192 | O=S(=O)(/C=C/c1ccccc1)N1CCc2c([nH]c3ccccc23)C1c1ccc2c(c1)OCO2 (stereo not drawn) [Example 41a, 1-benzo[1,3]dioxol-5-yl-2-(2-phenylethenesulfonyl)-2,3,4,9-tetrahydro-1H-β-carboline]
24 | 13 | 120 to 121 | C[C@H](NC(=O)N1CCc2c([nH]c3ccccc23)[C@H]1c1ccc2c(c1)OCO2)c1ccccc1 [Example 10, (1R)-benzo[1,3]dioxol-5-yl-1,3,4,9-tetrahydro-β-carboline-2-carboxylic acid (1S)-(phenylethyl)amide]
25 | 9 |  | O=C(OCc1ccccc1)N1CCc2c([nH]c3ccccc23)[C@H]1c1ccc2c(c1)OCO2 [Example 15b, (1R)-1-benzo[1,3]dioxol-5-yl-1,3,4,9-tetrahydro-β-carboline-2-carboxylic acid benzyl ester]
26 | 379 | 207 to 208 | O=C(NC(=S)N1CCc2c([nH]c3ccccc23)C1c1ccc2c(c1)OCO2)c1ccccc1 (centres unmarked) [Example 38]
27 | 40 | 205 to 207 | S=C(NCc1ccccc1)N1CCc2c([nH]c3ccccc23)[C@H]1c1ccc2c(c1)OCO2 [Example 2b, (1R)-1-benzo[1,3]dioxol-5-yl-1,3,4,9-tetrahydro-β-carboline-2-carbothioic acid benzylamide]
28 | 167 |  | O=C(Nc1ccccc1)C(=O)N1CCc2c([nH]c3ccccc23)[C@H]1c1ccc2c(c1)OCO2 [Example 1, (1R)-2-(1-benzo[1,3]dioxol-5-yl-1,3,4,9-tetrahydro-β-carbolin-2-yl)-2-oxo-N-phenylacetamide]
29 | 51 | 197 | S=C(NCc1ccccc1)N1CCc2c([nH]c3ccccc23)C1c1ccc2c(c1)OCO2 (stereo not drawn) [Example 2a, 1-benzo[1,3]dioxol-5-yl-1,3,4,9-tetrahydro-β-caboline-2-carbothioic acid benzylamide]
30 | 49 |  | O=C(NC(=O)N1CCc2c([nH]c3ccccc23)[C@H]1c1ccc2c(c1)OCO2)c1ccccc1 [Example 12, N-((1R)-1-benzo[1,3]dioxol-5-yl-1,3,4,9-tetrahydro-β-carboline-2-carbonyl)benzamide]
31 | 40 |  | Fc1ccccc1CNC(=S)N1CCc2c([nH]c3ccccc23)[C@H]1c1ccc2c(c1)OCO2 [Example 26]
32 | 469 | 218 to 220 | O=C(O)c1cccc(CNC(=S)N2CCc3c([nH]c4ccccc34)[C@H]2c2ccc3c(c2)OCO3)c1 [Example 29, (1R)-3-{[(1-benzo[1,3]dioxol-5-yl-1,3,4,9-tetrahydro-β-carboline-2-carbthiolyl)amino]methyl}benzoic acid]
33 | 17 |  | O=C(OCc1ccccc1)N1CCc2c([nH]c3ccccc23)C1c1ccc2c(c1)OCO2 (stereo not drawn) [Example 15a, 1-benzo[1,3]dioxol-5-yl-1,3,4,9-tetrahydro-β-carboline-2-carboxylic acid benzyl ester]
34 | 29 |  | O=C(CC(=O)N1CCc2c([nH]c3ccccc23)[C@H]1c1ccc2c(c1)OCO2)c1ccccc1 [Example 17, (1R)-1-(1-benzo[1,3]dioxol-5-yl-1,3,4,9-tetrahydro-β-carbolin-2-yl)-3-phenylpropane-1,3-dione]
35 | 413 | 193 to 194 | O=S(=O)(/C=C/c1ccccc1)N1CCc2c([nH]c3ccccc23)[C@H]1c1ccc2c(c1)OCO2 [Example 41b, (1R)-1-benzo[1,3]dioxol-5-yl-2-(2-phenylethenesulfonyl)-2,3,4,9-tetrahydro-1H-β-carboline]
36 | 177 | 123 to 128 | S=C(NCc1ccccc1Cl)N1CCc2c([nH]c3ccccc23)[C@H]1c1ccc2c(c1)OCO2 [Example 24, (1R)-benzo[1,3]dioxol-5-yl-1,3,4,9-tetrahydro-β-carboline-2-carbothioic acid 2-chlorobenzylamide]
